Measurements as given in patent US20110281951A1, “Compositions and methods for treating amyloidosis” (priority 1999, published 2011).

Legend:
Assay type in all cases: biochemical
IAPP [1] = target: T1, IAPP (Homo sapiens, UniProt P10997); experiment: Thioflavine T spectroscopy, rate of amyloid fibril formation; settings: ThT 62.5 μM; excitation 440 nm, emission 482 nm
T1 sequence (P10997 34-70 limits assumed): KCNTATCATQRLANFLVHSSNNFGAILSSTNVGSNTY
Procedure: Detection of ThT fluorescence can be used as a sensitive assay for amyloid fibril formation under different conditions. This assay has been used in experiments to determine the effects of compounds of the invention on amyloid fibril formation.
Human IAPP was dissolved in 40% trifluoroethanol and freeze-dried into conveniently-sized aliquots. IAPP was prepared immediately before the measurements by dissolving in 40% 1,1,1,3,3,3-hexafluoro-2-propanol (HFIP) in water to maintain the peptide in alpha helical conformation and soluble. A stock solution of ThT (2.5 mM) was prepared, 7.9 mg in 10 mL Tris-HCl pH 7.0 and filtered (0.22 μm). Solutions were kept in the dark until use. Fluorescence was examined at 440 nm excitation (slit 5 nm), and emission at 482 nm (slit 10 nm) with stirring. […] of ThT stock (final concentration 62.5 μM) was added to peptide sample and made up to 1 mL in the cuvette. The sample was stirred for 5 min. before taking a reading. Measurements were made at an initial time point (5 min. from sample preparation), at intervals over the next 4-6 h and after overnight incubation at room temperature.

IAPP [2] = target: T1, IAPP; experiment: Circular dichroism analysis of IAPP-associated fibril formation (Example 7); design: add 10 μL of 10 mg/mL IAPP stock solution (final 100 ng peptide); settings: for Conformation at 24 h / CD at 24 h / Conformation at 48 h / CD at 48 h / Conformation at T0: molar ratio 1:5 peptide:compound; for CD at 24 h / CD at 48 h: more positive = less β-sheet; for Activity (change in ellipticity at 218 nm): molar ratio 1:10 peptide:compound
Procedure: Circular dichroism analysis was conducted to confirm the activity of certain therapeutic compounds in preventing or inhibiting IAPP-associated fibril formation in accordance with the present disclosure by determining the presence or absence of […] conformation.
Instrument: JASCO J-715 Spectropolarimeter
Cell cuvette: Hellma quartz (QS) with 1.0 mm pathlength
Wavelength interval: 250 nm-190 nm
Scanning speed: 20 nm/min
The assay, a co-incubation procedure, examines the ability of a compound or substance to inhibit the assembly of amyloid fibrils, e.g., to test for the presence of the amyloidotic β-sheet conformation in the presence of soluble IAPP. Samples are run in the presence and absence (i.e., water alone) of buffering agent, which is done to determine if competitive effects are seen with the ionic buffer (usually phosphate).
Add components used at a molar ratio of 1:10 [ peptide:compound]; add 10 μL of 10 mg/mL IAPP stock solution (final […] peptide) to the aqueous solution containing compound to a final volume of 400 μL. The pH of the final assay solution is measured to ensure there is no fluctuation and the spectrum is accumulated using the parameters as shown above.
Add desired amount of compound to achieve a 1:10 molar ratio in 10 mM phosphate buffer, pH 7. Add 10 μL of 10 mg/mL IAPP stock solution (final peptide 100 μg) to the phosphate buffered solution containing the compound and bring to a final volume of 400 μL. The pH of the final assay solution is measured to ensure there is no fluctuation and the spectrum is accumulated using the parameters as shown above.
In both assays, a control sample is run with each test group. This control contains peptide only in water or buffer at a similar final volume of 400 μl. Spectra for the control are collected initially (first run) and at the end of the test (final run) to ensure that the peptide has not undergone extensive aggregation during the course of the assay. Spectra for the controls are used to compare with the measurements obtained with the treated samples.
Make fresh 1 mg/mL stock solution of IAPP in 10 mM phosphate buffer, pH 7. Add desired amount of compound to achieve a 1:10 molar ratio in 10 mM phosphate buffer, pH 7. Incubate for 3 days at room temperature. Make up to final volume of 400 μL with 10 mM phosphate buffer, pH 7. The pH of the final assay solution is measured to ensure there is no fluctuation and the spectrum is accumulated using the parameters as shown above.
A similar control is run for comparative purposes.
Plots of the spectra (control and treated) are individually assembled and the changes in ellipticity at 218 nm are examined. This minimum is directly correlated with the amount of β-sheet present in the sample. Changes in either a positive or negative direction are noted and a relative value (“active” or “not active”) assigned to the compound as a measure of activity. In a subsequent experiment with the compounds at a molar ratio of 1:5 [ peptide:compound], the degree of randomness was noted, an indication of the ability of the compounds to prevent amyloid aggregation. A more positive number indicates less β-sheet formation. The ability of a compound to prevent β-sheet formation for at least 24 h is important, as the non-aggregated amyloid fibrils will be excreted in the soluble form. In the control noted below, the decrease in CD (mdegs) may indicate that some of the peptide is aggregating under these conditions.

Aβ(1-40) = target: T2, Aβ(1-40) (Homo sapiens, UniProt P05067); experiment: Circular dichroism analysis, pre-incubation assay, β-sheet at 218 nm; settings: CD 218 nm, 0.02M Tris pH 7.4
T2 construct: Prepare a fresh 40 μm solution of Aβ(1-40) in 0.02M Tris, pH 7.4; made in house; host or cells: chemical synthesis (FMOC), HPLC purified
Procedure: The assay is conducted as follows:
Instrument: JASCO J-715 Spectropolarimeter.
Cell/cuvette: Hellma quartz (QS) with 1.0 mm pathlength Room temperature. Wavelength interval: 250 nm-190 nm.
Band width: 1.0 nm Response time: 1 sec Scanning speed: 20 nm/min Number of accumulations/spectrum: 5
1. Prepare a fresh 40 μm solution of Aβ(1-40) in 0.02M Tris, pH 7.4.
2. Prepare a 1 mM solution of test compounds in 0.02M Tris, pH 7.4.
3. Combine equal volumes of the Aβ(1-40) and test compound solutions.
4. Incubate the mixtures for 19 h.
5. Take the CD spectrum using the parameters above.
6. Return the mixtures to the incubator and incubate to 43 h.
7. Take the CD spectrum using the parameters above. • Inhibition of Aβ40 assembly/aggregation is determined by comparing the amount of b-sheet structure) appearing at lambda=218 nm) obtained in control and in treated sample at each timepoint.

Aβ42 peptide = target: T3, Aβ42 peptide (Homo sapiens, UniProt P05067); experiment: ELISA solubility assay (Aβ fibril formation); settings: 1:10 peptide:compound, overnight at room temperature, 10 mM phosphate buffer
T3 construct: Stock solution of Aβ42 or Aβ40 peptide at 5 mg/ml in distilled water, pH 7; made in house; host or cells: chemical synthesis (FMOC), HPLC purified
Procedure: The assay was conducted as follows. Stock solution of Aβ42 peptide at 5 mg/ml in distilled water, pH 7, and stock solutions of each test compound at 1 mg/ml in distilled water, pH 7 were prepared. • 1. A 10 μg sample of peptide was mixed with compound at a molar ratio of 1:10 [ peptide:compound] in 500 μl of 10 mM phosphate buffer. Control samples contained peptide only. • 2. The mixture was incubated overnight at room temperature without agitation. • 3. The incubated mixture was centrifuged at 14,000 rpm (Eppendorf microfuge) for 5 minutes to separate the soluble peptide. • 4. 400 μl aliquots of supernatant were removed for ELISA assay.
ELISA • 1. 100 μl of prepared samples were coated in 96 wells NUNC microplates (each sample tested in triplicate) • 2. The plate was incubated at 37° C. for 3 hours, then at 4° C. overnight. • 3. The wells were washed twice with 0.05% Tween 20 in phosphate buffered saline. • 4. 250 μl of 3% skim milk powder in PBS was used to block non-specific binding to the wells (at 37° C. for 1.5 hours) • 5. The wells were washed with 0.05% Tween 20/PBS twice. • 6. A 100 μl aliquot of diluted (final dilution 1:100 in PBS) mouse monoclonal anti-Aβ antibody (purchased from DAKO recognizing the N-terminal residues 1-10) was added to each well. The antibody was then incubated at 37 C for 2 Hours. • 7. The wells were washed with 0.05% Tween 20/PBS six times (5 min/wash). • 8. Visualization was performed using 100 μl of diluted goat anti-mouse IgG (H^+ L) conjugated with alkaline phosphatase (purchased from BioRad) was added to each well. The plate was incubated at 37° C. for 1 hour. • 9. The wells were washed with 0.05% Tween 20/PBS six times (5 min/wash). • 10. The color reaction was developed using 100 μl of alkaline phosphatase substrate (purchased from BioRad) which was added to each well. • 11. The relative amounts of Aβ were obtained by measuring the OD of the sample at 405 nm using a standard ELISA plate reader.
Compounds were characterized as “active” if 40-50% of Aβ42 remained in the supernatant.

T3 sequence (P05067 672-713 limits assumed): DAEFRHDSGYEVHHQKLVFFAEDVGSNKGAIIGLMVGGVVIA
T2 sequence (P05067 672-711 limits assumed): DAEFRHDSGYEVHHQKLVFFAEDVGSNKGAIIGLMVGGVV

Compound	IAPP-associated fibril assembly (ThT fluorescence) (IAPP [1])	Conformation at 24 h (IAPP [2])	CD at 24 h (IAPP [2])	Conformation at 48 h (IAPP [2])	CD at 48 h (IAPP [2]) [mdegs]	Conformation at T0 (IAPP [2])	Activity (change in ellipticity at 218 nm) (IAPP [2])	relative inhibition compared to Aβ alone, incubation time 0 h (Aβ(1-40))	relative inhibition compared to Aβ alone, incubation time 19 h (Aβ(1-40))	relative inhibition compared to Aβ alone, incubation time 43 h (Aβ(1-40))	Aβ42 remaining in the supernatant (activity class) (Aβ42 peptide)
Cl.c1ccc2c(c1)CCNC2 [LVIX, 1,2,3,4-tetrahydroisoquinoline, hydrochloride]	inhibit or prevent IAPP-associated fibril assembly	β	(−1.5) mdegs	β	−1.3	Random	Active				
O=S(=O)(O)CCCNCCCO [LVX, 3-(3-hydroxy-1-propyl)amino-1-propanesulfonic acid]	inhibit or prevent IAPP-associated fibril assembly	Random		β	−1.7	Random					
O=S(=O)(O)NC1CCCCC1 [LVXI, cyclohexylsulfamic acid]	inhibit or prevent IAPP-associated fibril assembly	β	(−1.1) mdegs	β	−0.8	Random	Active				
N[C@@H](COP(=O)(O)O)C(=O)O [LVXII, O-phospho-L-serine]	inhibit or prevent IAPP-associated fibril assembly	Random		β	−2.0	Random					
COc1ccc(S(=O)(=O)O)c2cccnc12 [LVXIV, 8-methoxyquinoline-5-sulfonic acid]	inhibit or prevent IAPP-associated fibril assembly	β	(−1.3) mdegs	β	−0.8	Random					
O=S(=O)(O)CCCN1CC=C(c2ccccc2)CC1 [LVXV, 4-Phenyl-1-(3′-sulfopropyl)-1,2,3,6-tetrahydropyridine]	inhibit or prevent IAPP-associated fibril assembly	Random		β	−1.8	Random		+ (+: 0-25%)	++++ (++++: 75-100%)	++ (++: 25-50%)	
NCC(O)CS(=O)(=O)O (stereo not drawn) [LVXVI, 3-amino-2-hydroxy-1-propanesulfonic acid]	inhibit or prevent IAPP-associated fibril assembly							+ (+: 0-25%)	+++ (+++: 50-75%)	++ (++: 25-50%)	
CN(C)CCCS(=O)(=O)O [LVXVII, 3-dimethylamino-1-propanesulfonic acid]	inhibit or prevent IAPP-associated fibril assembly	β	(−1.7) mdegs	β	−1.5	Random					
C=CC(=O)NC(C)(C)CS(=O)(=O)O [XXI, 2-acrylamido-2-methyl-1-propanesulfonic acid]											Active
CC12CC3CC(C)(C1)CC(NCCCS(=O)(=O)O)(C3)C2 [XXIV, 3-[(−3,5-dimethyl-1-adamantyl)-amino]-1-propanesulfonic acid]											Active
Cc1ccc2nc(-c3ccc(N=NNc4ccc(-c5nc6ccc(C)c(S(=O)(=O)[O-])c6s5)cc4)cc3)sc2c1S(=O)(=O)[O-].[Na+].[Na+] [XXVIII, Thiazol Yellow G]											Active
